In one assay the target is FGFR4 (Homo sapiens, UniProt P22455). Put plainly: In vitro biochemical kinase analysis of FGFR4 (HTRF KinEASE-TK). The settings on record: HTRF kinase assay. On the procedure:
In Vitro Biochemical Kinase Analysis of FGFR4
FGFR4 protein kinase detection kit was purchased from Cisbio (HTRF KinEASE-TK kit). Prepare 1× kinase reaction buffer. Transfer 10 nL of a diluted compound to each well of a reaction plate (784075, Greiner) with an Echo 550, and seal the plate with sealing film. The reaction plate was centrifuged at 1000 g for 1 minute. Prepare 2×FGFR4 using 1× kinase reaction buffer, add 5 μL of kinase to each well of the reaction plate, seal the plate, centrifuge at 1000 g for 30 seconds, and incubate it at room temperature for 10 minutes. Prepare a mixture of 2×TK-substrate-biotin and ATP using 1× kinase reaction buffer, add 5 μL of TK-substrate-biotin/ATP mixture to the reaction plate, seal the plate with sealing film, centrifuge at 1000 g for 30 seconds, and react at room temperature for 40 minutes. Prepare 2×Sa-XL 665 and TK-antibody-Cryptate mixture using HTRF detection buffer, add 10 μL Sa-XL 665 and TK-antibody-Cryptate mixture to each well, centrifuge at 1000 g for 30 seconds, and react at room temperature for 1 hour. Envision 2104 read fluorescence signals at 615 nm (Cryptate) and at 665 nm (XL665). IC50 of the compound was calculated using the GraphPad nonlinear fitting formula.
Background: Time-resolved FRET reads energy transfer from a long-lived donor to a nearby acceptor.

A further assay has as its system Hep 3B hepatoma cells. Put plainly: In vitro cell proliferation assay (CellTiter-Glo, CTG), Hep 3B. Type of assay: cell-based, human. The conditions noted are these: Homo sapiens, Hep3B, 96 h, Hep 3B cells. On the procedure: (§1) In Vitro Cell Proliferation Assay of FGFR4 (CellTiter-Glo Luminescent Cell Viability Assay, CTG Assay)
(§2) Hep 3B hepatoma cells were purchased from Cell Resource Center of Peking Union College, and HuH-7 hepatoma cells were purchased from Shanghai Biological Technology Co., Ltd. enzyme research. The cells were prepared at a concentration of 3×10^4/mL, which was then added with 100 μL to each well of a 96-well transparent flat-bottom black-walled plate to make 3000 cells per well. Incubate overnight at 37° C. in 5% CO2 incubator. Dilute a compound and add it to the wells having the cells, then add cell culture medium to 200 μL per well. Put in CO2 incubator for incubation. After 96 hours, 100 μL of culture medium was removed from each well, 100 μL of CTG was added, and the 96-well plate was placed on a shaker for 10 minutes, and placed in the shade at room temperature for 45 minutes. Data was read out by SoftMax Pro i3X Microplate Reader of MD, analyzed by the software GraphPad Prism 5.0, and S-shaped dose-response curve was drawn, then the EC50 values were calculated.

In a further assay the test system is HuH-7 hepatoma cells. Put plainly: In vitro cell proliferation assay (CellTiter-Glo, CTG), HuH-7. The assay is classed as cell-based. The settings on record: Homo sapiens, Huh-7, 96 h, HuH-7 cells. On the procedure:
as §1, §2
For orientation: ATP-based viability assays read luminescence as a measure of living cells.

Chain of FGFR4 (P22455 22-802): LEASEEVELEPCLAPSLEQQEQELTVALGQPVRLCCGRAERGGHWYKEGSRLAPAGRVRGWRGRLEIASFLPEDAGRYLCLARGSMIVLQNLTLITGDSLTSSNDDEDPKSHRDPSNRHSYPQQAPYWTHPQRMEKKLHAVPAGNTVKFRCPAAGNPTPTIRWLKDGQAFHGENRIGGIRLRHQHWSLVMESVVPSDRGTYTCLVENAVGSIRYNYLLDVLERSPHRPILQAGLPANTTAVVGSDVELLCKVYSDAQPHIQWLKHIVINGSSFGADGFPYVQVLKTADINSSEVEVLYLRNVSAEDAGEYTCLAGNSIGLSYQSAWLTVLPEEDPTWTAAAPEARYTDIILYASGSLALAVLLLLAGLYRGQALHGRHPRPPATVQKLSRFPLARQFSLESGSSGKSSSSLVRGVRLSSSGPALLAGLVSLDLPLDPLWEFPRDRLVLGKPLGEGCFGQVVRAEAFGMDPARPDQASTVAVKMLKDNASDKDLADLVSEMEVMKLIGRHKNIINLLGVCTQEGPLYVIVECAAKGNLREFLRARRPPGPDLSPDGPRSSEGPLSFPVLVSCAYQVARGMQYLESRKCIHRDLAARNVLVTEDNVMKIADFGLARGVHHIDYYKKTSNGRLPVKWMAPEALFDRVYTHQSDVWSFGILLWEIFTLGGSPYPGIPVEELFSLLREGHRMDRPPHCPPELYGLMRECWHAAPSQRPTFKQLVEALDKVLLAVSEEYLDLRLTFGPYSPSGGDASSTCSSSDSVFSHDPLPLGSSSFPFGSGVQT

The term IC50 denotes the concentration at which inhibition is half-maximal. A low value points to greater potency. A word on the EC50: it is the concentration that produces a half-maximal response. High values mean lower potency in that assay, low ones higher potency in that assay. Regarding `CO[C@@H]1CCC[C@H]1Nc1cc(NC(=O)N2c3nc(C=O)ccc3C3(F)CC2C3)ncc1C#N` (relative stereo) [Compound 19, N-(5-cyano-4-(((trans)-2-methoxycyclopentyl)amino)pyridin-2-yl)-4-fluoro-7-formyl-3,4-dihydro-2,4-methylene-1,8-naphthyridine-1(2H)-carboxamide], the half-inhibitory concentration (IC50) against FGFR4 was 0.8 nM. Further, the 50% effective concentration (EC50) in the assay on Hep 3B hepatoma cells came out at 6 nM; in the assay with HuH-7 hepatoma cells it was 31.6 nM.
On the same counts, the results for `N#Cc1cnc(NC(=O)N2c3nc(C=O)ccc3C3(F)CC2C3)cc1N[C@@H]1CCC[C@H]1O` (relative stereo) [Compound 20, N-(5-cyano-4-(((trans)-2-hydroxycyclopentyl)amino)pyridin-2-yl)-4-fluoro-7-formyl-3,4-dihydro-2,4-methylene-1,8-naphthyridine-1(2H)-carboxamide] are 0.6 nM, 1.2 nM and 24 nM.
For `CO[C@@H]1CCC[C@H]1Nc1cc(NC(=O)N2c3nc(C=O)c(CN4CCN(C)CC4=O)cc3C3CC2C3)ncc1C#N` (relative stereo) [Compound 26, N-(5-cyano-4-(((trans)-2-methoxycyclopentyl)amino)pyridin-2-yl)-7-formyl-6-((4-methyl-2-oxopiperazin-1-yl)methyl)-3,4-dihydro-2,4-methylene-1,8-naphthyridine-1(2H)-carboxamide], in that order: 0.3 nM, 1.3 nM and 1 nM.
For `CO[C@@H]1CCC[C@H]1Nc1cc(NC(=O)N2c3nc(C=O)ccc3C3(NC(=O)CN(C)C)CC2C3)ncc1C#N` (relative stereo) [Compound 33, N-(5-cyano-4-(((trans)-2-methoxycyclopentyl)amino)pyridin-2-yl)-4-(2-(dimethylamino)acetamido)-7-formyl-3,4-dihydro-2,4-methylene-1,8-naphthyridine-1(2H)-carboxamide], in that order: 0.3 nM, 0.3 nM and 0.08 nM.
For `CN1CCN(Cc2cc3c(nc2C=O)N(C(=O)Nc2cc(NC4CCCC4O)c(C#N)cn2)C2CC3(F)C2)C(=O)C1` (stereo not drawn) [Compound 17, N-(5-cyano-4-(((trans)-2-hydroxycyclopentyl)amino)pyridin-2-yl)-4-fluoro-7-formyl-6-((4-methyl-2-oxopiperazin-1-yl)methyl)-3,4-dihydro-2,4-methylene-1,8-naphthyridine-1(21-1)-carboxamide], 0.7 nM corresponded to half-maximal inhibition on FGFR4 (IC50). This compound also had an EC50 in the assay with HuH-7 hepatoma cells of 0.6 nM.
`N#Cc1cnc(NC(=O)N2c3nc(C=O)ccc3C3(F)CC2C3)cc1NC1CNC1` [Compound 23, N-(5-cyano-4-(azetidin-3-ylamino)pyridin-2-yl)-7-formyl-4-fluoro-3,4-dihydro-2,4-methylene-1,8-naphthyridine-1(2H)-carboxamide] registered an EC50 in the assay with Hep 3B hepatoma cells of 102 nM.
For the compound `COCCNc1cc(NC(=O)N2c3nc(C=O)ccc3C3(NC(=O)CN(C)C)CC2C3)ncc1C#N` [Compound 30, N-(5-cyano-4-((2-methoxyethyl)amino)pyridin-2-yl)-4-(2-(dimethylamino)acetamido)-7-formyl-3,4-dihydro-2,4-methylene-1,8-naphthyridine-1(2H)-carboxamide], inhibition against FGFR4 was half-maximal at 1.4 nM (IC50). In the assay with HuH-7 hepatoma cells, this compound returned an EC50 of 0.8 nM.
In turn, `COCCNc1cc(NC(=O)N2c3nc(C=O)ccc3C3(N(C)C4CCOC4)CC2C3)ncc1C#N` (stereo not shown) [Compound 34, N-(5-cyano-4-((2-methoxyethyl)amino)pyridin-2-yl)-4-(methyl(tetrahydrofuran-3-yl)amino)-7-formyl-3,4-dihydro-2,4-methylene-1,8-naphthyridine-1(2H)-carboxamide] came in with a concentration for half-maximal inhibition (IC50) against FGFR4 of 1.2 nM. This compound also had a 50% effective concentration (EC50) in the assay on Hep 3B hepatoma cells of 10.7 nM.
For `COCCNc1cc(NC(=O)N2c3nc(C=O)ccc3C3(OCCN4CCCC4)CC2C3)ncc1C#N` [Compound 35, N-(5-cyano-4-((2-methoxyethyl)amino)pyridin-2-yl)-4-(2-(pyrrolidin-1-yl)ethoxy)-7-formyl-3,4-dihydro-2,4-methylene-1,8-naphthyridine-1(2H)-carboxamide], in that order: 1.1 nM and 2.2 nM.
`CCC(=O)NC12CC(C1)N(C(=O)Nc1cc(NCCOC)c(C#N)cn1)c1nc(C=O)ccc12` [Compound 37, N-(5-cyano-4-((2-methoxyethyl)amino)pyridin-2-yl)-4-propionamido-7-formyl-3,4-dihydro-2,4-methylene-1,8-naphthyridine-1(2H)-carboxamide] displayed a half-maximal inhibitory concentration (IC50) on FGFR4 of 2.5 nM. The EC50 in the assay on Hep 3B hepatoma cells worked out at 6.4 nM.
On to `COCCNc1cc(NC(=O)N2c3nc(C=O)ccc3C3(N(C)C(=O)c4cnn(C)c4)CC2C3)ncc1C#N` [Compound 42], for which the IC50 against FGFR4 was 3.2 nM. The compound also registered an EC50 in the assay with Hep 3B hepatoma cells of 7.2 nM.
On the same counts, the results for `COCCNc1cc(NC(=O)N2c3nc(C=O)ccc3C3(N4CCN(C)CC4=O)CC2C3)ncc1C#N` [Compound 43, N-(5-cyano-4-((2-methoxyethyl)amino)pyridin-2-yl)-7-formyl-4-(4-methyl-2-oxopiperazin-1-yl)-3,4-dihydro-2,4-methylene-1,8-naphthyridine-1(2H)-carboxamide] are 3.1 nM and 6.5 nM.
On the same counts, the results for `COCCNc1cc(NC(=O)N2c3nc(C=O)ccc3C3(NC(=O)N4CCOCC4)CC2C3)ncc1C#N` [Compound 44, N-(5-cyano-4-((2-methoxyethyl)amino)pyridin-2-yl)-7-formyl-4-(morpholine-4-carboxamido)-3,4-dihydro-2,4-methylene-1,8-naphthyridine-1(2H)-carboxamide] are 2.5 nM and 12.3 nM.
On the same counts, the results for `COCCNc1cc(NC(=O)N2c3nc(C=O)ccc3C3(OCC(=O)N4CCOCC4)CC2C3)ncc1C#N` [Compound 45, N-(5-cyano-4-((2-methoxyethyl)amino)pyridin-2-yl)-4-(2-(morpholin-4-yl)-2-oxoethoxy)-7-formyl-3,4-dihydro-2,4-methylene-1,8-naphthyridine-1(2H)-carboxamide] are 1.8 nM and 11.4 nM.
`COCCNc1cc(NC(=O)N2c3nc(C=O)ccc3C3(NC(=O)CO)CC2C3)ncc1C#N` [Compound 47, N-(5-cyano-4-((2-methoxyethyl)amino)pyridin-2-yl)-4-(2-hydroxyacetamido)-7-formyl-3,4-dihydro-2,4-methylene-1,8-naphthyridine-1(2H)-carboxamide]: on FGFR4, the IC50 was determined as 2.8 nM. For the same compound, the EC50 in the assay with Hep 3B hepatoma cells is 17.8 nM.
`COCCNc1cc(NC(=O)N2c3nc(C=O)ccc3C3(NC(=O)c4ccccn4)CC2C3)ncc1C#N` [Compound 48, N-(5-cyano-4-((2-methoxyethyl)amino)pyridin-2-yl)-4-(pyridine-2-carboxamido)-7-formyl-3,4-dihydro-2,4-methylene-1,8-naphthyridine-1(2H)-carboxamide] showed an IC50 on FGFR4 of 1.6 nM.
The same measure, in the same setting: for `COCCNc1cc(NC(=O)N2c3nc(C=O)ccc3C3(NC(=O)c4ccc[nH]4)CC2C3)ncc1C#N` [Compound 49] the value was 1.6 nM.
On to `COCCNc1cc(NC(=O)N2CCCc3cc(CN4CCN(C)CC4=O)c(C=O)nc32)ncc1C#N` [Positive Control Compound, N-(5-cyano-4-((2-methoxyethyl)amino)pyridin-2-yl)-7-formyl-6-((4-methyl-2-oxopiperazin-1-yl)methyl)-3,4-dihydro-1,8-naphthyridine-1(2H)-carboxamide, reference compound], for which the EC50 is 15 nM with Hep 3B hepatoma cells and 52 nM with HuH-7 hepatoma cells.

(Values after patent US12344611B2, “Bridged cycloformylpyridine derivatives and uses thereof” (BroadenBio Co., Ltd., priority 2019, dated 2025).)
